17 compounds from patent publication US10457662B2, “Substituted amides for treating and preventing cancer” (The Regents of the University of Michigan, priority 2015, dated 2019) can be followed below.

One test deals with Panc-1. Put plainly: MTT assay, Panc-1. Format: cell-based. The settings on record: Homo sapiens. How it is done: (§1) Experiments conducted during the course of developing embodiments for the present invention involved performance of a phenotypic screen of a library of 20,000 small-molecules representing five million compounds. […] Subsequently, a lead optimization campaign was performed to synthesize a series of close analogs. Initially, the 50 analogs were tested in three pancreatic cancer cell lines using MTT assay (Table 1).
(§2) For in vitro studies, compounds were dissolved in DMSO at 10 mM as stock solutions and stored at −20° C. For in vivo studies, QN523 was dissolved in a vehicle containing 5% DMSO, 35% propylene glycol and 60% saline, and administered at 100 uL through intraperitoneal injections.
Background: Tetrazolium assays rely on reduction of a dye to a coloured formazan, in cell work by metabolically active cells.

Test [1] has as its system three pancreatic cancer cell lines. Put plainly: MTT assay, three pancreatic cancer cell lines. Format: cell-based. Conditions: read-out: Mark: IC50 lower than 1 μM in at least one cell line, Table 1.
Another test has as its system MiaPaCa-2. Put plainly: MTT assay, MiaPaCa-2. Conditions: Homo sapiens. As for the experimental part:
Cells were treated with QN523 for 1, 4, 8, 24, 48, 72 h and left in culture in fresh media. MTT assay was performed 72 h after initiation of treatment. Data points represent Mean±SD from three independent experiments.
as §1, §2

A further test concerns BxPC-3. Put plainly: MTT assay, BxPC-3. Format: cell-based. Conditions: Homo sapiens. How it is done: as §1, §2
For the next test, the system named is GRP78, CHOP, ATF3, GDF15. Put plainly: Western blotting of stress responsive proteins in MiaPaCa-2. Format: cell-based. How it is done: FIG. 11: QN523 induces protein expression of stress markers dose-dependently.
This example describes the validation of biomarkers GDF15, ATF3, DDIT3, HSPA5, WIPI1, GABARAPL1 and MAP1LC3B in pancreatic cancer cell lines. To validate the findings from bioinformatics analysis basing on Bru-seq experiments, the proposed biomarkers were further tested in pancreatic cancer cell lines. […] However, the potency of Sulindac is much lower than that of QN523, with IC50 of 300 μM in MiaPaCa-2.
(§3) In addition, primary antibodies for LC3B, survivin, cyclin D1, Stat3 and phosphorylated Stat3 (Y705) are from Cell Signaling Technology.
A general note: A western blot detects proteins with antibodies after separation by electrophoresis.

For test [2], the system named is WIPI1, GABARAPL1 and LC3B. Put plainly: Western blotting of autophagy related proteins in MiaPaCa-2. The settings on record: for activation of autophagy: at their IC50 values. Format: cell-based. As for the experimental part: FIG. 12: QN523 induces protein expression of autophagy markers dose-dependently.
Significant induction of the protein was detected at concentrations as low as 0.25 μM.
as §3

[3] abbreviates: PANC-1, MTT assay, Mean ± SD, three independent experiments, read-out: IC50 Values Panc-1.
The mark [4] stands for this setting: MIA PaCa-2, read-out: IC50 Values MiaPaCa-2.
Where [5] appears, read: BXPC-3, MTT assay, Mean ± SD, three independent experiments, read-out: IC50 Values BxPC-3.
[6] abbreviates: PANC-1, read-out: IC50 Values Panc-1.
[7] abbreviates: MIA PaCa-2, read-out: IC50 Values MiaPaCa-2, MTT assay, Mean ± SD, three independent experiments.
The mark [8] stands for this setting: BXPC-3, read-out: IC50 Values BxPC-3.

SMILES strings stand for the structures. Where two headings read alike, the source gives them in different places.

As usually defined, the IC50 is the point on the concentration scale where inhibition reaches its midpoint.

Regarding `O=C(Nc1ccc(Br)c2cccnc12)c1cnccn1` [QN618, Pyrazine-2-carboxylic acid (5-bromoquinolin-8-yl)amide], the IC50 was 7020 ± 2920 nM with Panc-1 (setting [3]), below 1000 nM in test [1], 750 ± 90 nM in the test on MiaPaCa-2 (setting [4]) and 7510 ± 1320 nM with BxPC-3 (setting [5]).

Consider `CN1CCN(CCCN2c3ccccc3Sc3ccc(Cl)cc32)CC1` [prochlorperazine], for which, in the test on GRP78, CHOP, ATF3, GDF15 (tested at IC50 value), the “induction of GRP78 and CHOP” value is “most robust induction of GRP78 and CHOP”. For the same compound, the activation of autophagy result in test [2] is reported as “robust activation of autophagy”.

Consider `O=C(Nc1cc(F)cc2cccnc12)c1cnccn1` [QN651, Pyrazine-2-carboxylic acid (6-fluoro-quinolin-8-yl)amide], for which the IC50 with Panc-1 (setting [3]) was 670 ± 250 nM; in test [1] it was below 1000 nM; with MiaPaCa-2 (setting [4]), 130 ± 60 nM; in the test on BxPC-3 (setting [5]) it was above 10000 nM.

In the case of `CSc1ccc2c(c1)N(CCC1CCCCN1C)c1ccccc1S2` (stereo not drawn) [thioridazine], the activation of autophagy entry in test [2] was “robust activation of autophagy”.

For `Cc1cnc(C(=O)Nc2cc(OCCN3CCOCC3)cc3cccnc23)cn1` [QN138, 5-Methyl-pyrazine-2-carboxylic acid [6-(2-morpholin-4-yl-ethoxy)-quinolin-8-yl]-amide], the concentration for half-maximal inhibition (IC50) with Panc-1 (setting [3]) was 3500 ± 500 nM; in test [1], below 1000 nM; in the test on MiaPaCa-2 (setting [4]) it was 730 ± 150 nM; in the test on BxPC-3 (setting [5]), 2000 ± 870 nM.

Regarding `O=C(Nc1cc(OCCF)cc2cccnc12)c1cnccn1` [QN144, Pyrazine-2-carboxylic acid [6-(2-fluoro-ethoxy)-quinolin-8-yl]amide], the IC50 with Panc-1 (setting [3]) is 530 ± 210 nM; in test [1], below 1000 nM; in the test with MiaPaCa-2 (setting [4]), 370 ± 150 nM; in the test with BxPC-3 (setting [5]), 4330 ± 760 nM.

Regarding `COc1cc(NC(=O)c2cnc(C)cn2)c2ncccc2c1` [QN663, 5-Methylpyrazine-2-carboxylic acid (6-methoxyquinolin-8-yl)amide], the half-maximal inhibitory concentration (IC50) in the test with Panc-1 (setting [3]) was 830 ± 210 nM; in test [1], below 1000 nM; in the test on MiaPaCa-2 (setting [4]), 270 ± 150 nM; in the test on BxPC-3 (setting [5]), 6700 ± 600 nM.

As for `Cc1cnc(C(=O)Nc2cc(F)cc3cccnc23)cn1` [QN652, 5-Methylpyrazine-2-carboxylic acid (6-fluoroquinolin-8-yl)amide], the 50% inhibitory concentration (IC50) is 2120 ± 940 nM in the test with Panc-1 (setting [3]), below 1000 nM in test [1], 310 ± 160 nM in the test on MiaPaCa-2 (setting [4]) and above 10000 nM in the test with BxPC-3 (setting [5]).

On to `CC1=C(CC(=O)O)c2cc(F)ccc2/C1=C\c1ccc([S+](C)[O-])cc1` (stereo not drawn) [Sulindac], for which the “protein levels of stress responsive markers HSPA5, DDIT3, ATF3 and GDF15” value with GRP78, CHOP, ATF3, GDF15 (72 h, western blotting) is reported as “induced”. Also, the “autophagy-related markers WIPI1, GABARAPL1 and LC3B” value in test [2] (72 h treatment, western blotting) is given as “Accumulation”. The IC50 in the test on MiaPaCa-2 (MIA PaCa-2, read-out: IC50 in MiaPaCa-2) is 300000 nM.

For `O=C(Nc1cccc2cccnc12)c1ncccn1` [QN567, Pyrimidine-2-carboxylic acid quinolin-8-ylamide], the concentration for half-maximal inhibition (IC50) with Panc-1 (setting [6]) was above 10000 nM; in test [1], below 1000 nM; in the test on MiaPaCa-2 (setting [7]), 330 ± 60 nM; in the test with BxPC-3 (setting [8]), above 10000 nM.

As to `O=C(Nc1cc(F)cc2cccnc12)c1ncccn1` [QN658, Pyrimidine-2-carboxylic acid (6-fluoroquinolin-8-yl)amide], the IC50 in the test with Panc-1 (setting [3]) was 5330 ± 1530 nM; in test [1], below 1000 nM; with MiaPaCa-2 (setting [4]), 300 ± 100 nM; in the test on BxPC-3 (setting [5]) it was above 10000 nM.

In the case of `CC(C)(C)OC(=O)NCCOc1cc(NC(=O)c2cnccn2)c2ncccc2c1` [QN151, (2-{8-[(Pyrazine-2-carbonyl)amino]quinolin-6-yloxy}ethyl)carbamic acid tert-butyl ester], the IC50 in the test with Panc-1 (setting [3]) is 9500 ± 500 nM; in test [1], below 1000 nM; with MiaPaCa-2 (setting [4]), 870 ± 150 nM; in the test with BxPC-3 (setting [5]), 9170 ± 760 nM.

`COc1cc(NC(=O)c2cnccn2)c2ncccc2c1` [QN107]: the half-inhibitory concentration (IC50) is 770 ± 210 nM in the test with Panc-1 (setting [3]), below 1000 nM in test [1], 280 ± 40 nM in the test on MiaPaCa-2 (setting [4]) and 5530 ± 1180 nM in the test with BxPC-3 (setting [5]).

In the case of `O=C(Nc1cc(Cl)cc2cccnc12)c1ncccn1` [QN794, N-(6-Chloroquinolin-8-yl)pyrimidine-2-carboxamide], the IC50 was 4670 ± 1530 nM in the test with Panc-1 (setting [3]), below 1000 nM in test [1], 800 ± 50 nM with MiaPaCa-2 (setting [4]) and above 10000 nM in the test with BxPC-3 (setting [5]).

On to `Cc1cnc(C(=O)Nc2cc(OCCNC(=O)OC(C)(C)C)cc3cccnc23)cn1` [QN152, (2-{8-[(5-Methylpyrazine-2-carbonyl)amino]quinolin-6-yloxy}ethyl)carbamic acid tert-butyl ester], for which the concentration for half-maximal inhibition (IC50) in the test with Panc-1 (setting [3]) was 2170 ± 760 nM; in test [1], below 1000 nM; in the test on MiaPaCa-2 (setting [4]) it was 670 ± 120 nM; with BxPC-3 (setting [5]) it was 3670 ± 760 nM.

Turning to `CN(C)Cc1ccc2cccc(NC(=O)c3cnccn3)c2n1` [QN659, Pyrazine-2-carboxylic acid (2-dimethylaminomethyl-quinolin-8-yl)amide], the IC50 in the test with Panc-1 (setting [3]), with MiaPaCa-2 (setting [4]) and with BxPC-3 (setting [5]) was above 10000 nM each time.

On to `O=C(Nc1cccc2cccnc12)c1cccc(Br)n1` [QN530, 6-Bromopyridine-2-carboxylic acid quinolin-8-ylamide], for which the IC50 in the test with Panc-1 (setting [6]), in the test with MiaPaCa-2 (setting [7]) and in the test on BxPC-3 (setting [8]) was above 10000 nM in each case.
